In PMC9730523 (Frontiers in Immunology, 2022):

Legend:
mMC4 [1] = molecular target: T1, mMC4 (Mus musculus, UniProt P56450); experiment: cAMP accumulation assay, transfected HEK293A; format: cell-based; details: HEK293-A, 0.25 h, normalised maximal efficacy at 2μM, percentage of maximal αMSH response, read-out: Top
T1 construct: host or cells: HEK293A
Protocol: (§1) HEK293A cells were maintained in DMEM containing 10% fetal calf serum (FCS), 2 mM L-glutamine, 100 U/ml penicillin, and 100 μg/ml streptomycin and kept at 37°C with 5% CO2. […] Compound solutions were prepared in serum-free DMEM containing 10 mM 3-isobutyl-1-methylxanthine (IBMX; Sigma), to inhibit phosphodiesterase activity. […] Optical Density (OD) measurements were converted to cAMP concentration using a standard curve and results were normalized subtracting background signal and calculated as % of forskolin.

hMC4 [2] = molecular target: T2, hMC4 (Homo sapiens, UniProt P32245); experiment: cAMP accumulation assay, transfected HEK293A; format: cell-based; details: HEK293-A, 0.25 h, normalised maximal efficacy at 2μM, percentage of maximal αMSH response, read-out: Top
T2 construct: host or cells: HEK293A
T2 sequence (P32245 whole entry): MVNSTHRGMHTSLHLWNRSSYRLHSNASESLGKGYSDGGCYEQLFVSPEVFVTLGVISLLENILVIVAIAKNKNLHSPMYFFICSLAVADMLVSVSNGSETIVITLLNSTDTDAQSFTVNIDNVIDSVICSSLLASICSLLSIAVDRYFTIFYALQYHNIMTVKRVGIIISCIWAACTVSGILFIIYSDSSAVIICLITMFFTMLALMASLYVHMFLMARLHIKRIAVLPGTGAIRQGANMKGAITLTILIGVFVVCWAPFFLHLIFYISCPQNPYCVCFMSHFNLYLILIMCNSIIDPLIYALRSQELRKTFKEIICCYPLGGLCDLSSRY
Protocol: as §1

mMC4 [3] = molecular target: T1, mMC4; experiment: ERK1/2 phosphorylation assay, transfected HEK293A; format: cell-based; details: HEK293-A, 5 min; p-ERK1/2, mMC4; normalised maximal efficacy at 2μM, percentage of maximal αMSH response; read-out: Top
Protocol: (§2) HEK293A cells were maintained in DMEM containing 10% fetal calf serum (FCS), 2 mM L-glutamine, 100 U/ml penicillin, and 100 μg/ml streptomycin and kept at 37°C with 5% CO2. […] Total protein was also quantified by Bradford to normalize p-ERK1/2 response.

hMC4 [4] = molecular target: T2, hMC4; experiment: ERK1/2 phosphorylation assay, transfected HEK293A; format: cell-based; details: HEK293-A, 5 min; p-ERK1/2, hMC4; normalised maximal efficacy at 2μM, percentage of maximal αMSH response; read-out: Top
Protocol: as §2

[5] = humans, single subcutaneous administration; cited from earlier work
mMC1 [6] = molecular target: T3, mMC1 (Mus musculus, UniProt Q01727); experiment: ERK1/2 phosphorylation assay, transfected HEK293A; format: cell-based; set-up: host or cells: HEK293A; details: HEK293-A, 5 min; p-ERK1/2, mMC1; normalised maximal efficacy at 2μM, percentage of maximal αMSH response; read-out: Top
T3 sequence (Q01727 whole entry): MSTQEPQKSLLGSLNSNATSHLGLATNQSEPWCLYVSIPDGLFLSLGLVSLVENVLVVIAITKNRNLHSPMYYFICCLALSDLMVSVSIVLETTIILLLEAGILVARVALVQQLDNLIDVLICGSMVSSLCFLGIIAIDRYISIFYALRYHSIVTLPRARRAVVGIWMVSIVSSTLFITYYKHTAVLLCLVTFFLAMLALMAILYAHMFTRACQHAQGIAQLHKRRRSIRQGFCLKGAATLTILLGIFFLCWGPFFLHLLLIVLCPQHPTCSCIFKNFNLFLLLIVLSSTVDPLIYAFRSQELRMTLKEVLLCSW
Protocol: (§3) HEK293A cells were maintained in DMEM containing 10% fetal calf serum (FCS), 2 mM L-glutamine, 100 U/ml penicillin, and 100 μg/ml streptomycin and kept at 37°C with 5% CO2.
(§4) Twenty-four hours after transfection, cells were serum-starved for 3 hours to reduce and stabilize basal levels of phospho-ERK1/2. Concentration response curves were generated by 1/5 serial dilutions as above. Drug solutions were prepared in serum-free DMEM. Cells were stimulated for 5 min with the different compounds and lysed immediately with ice-cold extraction buffer supplied in the ERK1/2 (pT202/Y204) SimpleStep ELISA Kit (Abcam ab176640; Cambridge, UK), according to manufacturer instructions. Total protein was also quantified by Bradford to normalize p-ERK1/2 response.

mMC5 [7] = molecular target: T4, mMC5 (Mus musculus, UniProt P41149); experiment: ERK1/2 phosphorylation assay, transfected HEK293A; format: cell-based; set-up: host or cells: HEK293A; details: HEK293-A, 5 min; p-ERK1/2, mMC5; normalised maximal efficacy at 2μM, percentage of maximal αMSH response; read-out: Top
T4 sequence (P41149 whole entry): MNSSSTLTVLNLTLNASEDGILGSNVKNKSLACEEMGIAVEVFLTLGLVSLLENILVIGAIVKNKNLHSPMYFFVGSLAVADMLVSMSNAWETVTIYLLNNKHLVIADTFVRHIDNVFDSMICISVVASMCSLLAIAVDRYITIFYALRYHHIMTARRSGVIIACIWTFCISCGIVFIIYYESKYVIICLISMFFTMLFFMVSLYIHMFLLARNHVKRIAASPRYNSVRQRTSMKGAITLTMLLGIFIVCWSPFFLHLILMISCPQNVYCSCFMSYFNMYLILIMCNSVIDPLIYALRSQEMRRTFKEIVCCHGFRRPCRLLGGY
Protocol: as §3, §4

hMC1 [8] = molecular target: T5, hMC1 (Homo sapiens, UniProt Q01726); experiment: ERK1/2 phosphorylation assay, transfected HEK293A; format: cell-based; set-up: host or cells: HEK293A; details: 5 min; p-ERK1/2, hMC1; normalised maximal efficacy at 2μM, percentage of maximal αMSH response; read-out: Top
T5 sequence (Q01726 whole entry): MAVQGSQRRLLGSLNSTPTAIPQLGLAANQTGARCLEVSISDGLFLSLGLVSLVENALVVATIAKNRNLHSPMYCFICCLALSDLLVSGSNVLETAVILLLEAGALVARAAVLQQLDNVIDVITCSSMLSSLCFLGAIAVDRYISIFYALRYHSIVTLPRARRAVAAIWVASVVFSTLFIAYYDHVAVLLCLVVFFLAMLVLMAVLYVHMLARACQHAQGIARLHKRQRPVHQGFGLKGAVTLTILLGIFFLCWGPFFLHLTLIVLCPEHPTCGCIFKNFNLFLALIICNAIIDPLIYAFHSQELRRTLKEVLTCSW
Protocol: as §3, §4

hMC3 [9] = molecular target: T6, hMC3 (Homo sapiens, UniProt P41968); experiment: ERK1/2 phosphorylation assay, transfected HEK293A; format: cell-based; set-up: host or cells: HEK293A; details: 5 min; p-ERK1/2, hMC3; normalised maximal efficacy at 2μM, percentage of maximal αMSH response; read-out: Top
T6 sequence (P41968 whole entry): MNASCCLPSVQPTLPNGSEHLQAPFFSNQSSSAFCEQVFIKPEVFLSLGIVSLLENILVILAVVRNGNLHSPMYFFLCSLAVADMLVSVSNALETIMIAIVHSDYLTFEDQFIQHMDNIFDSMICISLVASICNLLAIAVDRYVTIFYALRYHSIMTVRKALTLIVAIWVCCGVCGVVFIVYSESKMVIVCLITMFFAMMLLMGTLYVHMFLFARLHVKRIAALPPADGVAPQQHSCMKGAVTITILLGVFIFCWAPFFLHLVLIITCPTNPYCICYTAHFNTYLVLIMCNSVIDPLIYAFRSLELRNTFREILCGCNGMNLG
Protocol: as §3, §4

hMC5 [10] = molecular target: T7, hMC5 (Homo sapiens, UniProt P33032); experiment: ERK1/2 phosphorylation assay, transfected HEK293A; format: cell-based; set-up: host or cells: HEK293A; details: HEK293-A, 5 min; p-ERK1/2, hMC5; normalised maximal efficacy at 2μM, percentage of maximal αMSH response; read-out: Top
T7 sequence (P33032 whole entry): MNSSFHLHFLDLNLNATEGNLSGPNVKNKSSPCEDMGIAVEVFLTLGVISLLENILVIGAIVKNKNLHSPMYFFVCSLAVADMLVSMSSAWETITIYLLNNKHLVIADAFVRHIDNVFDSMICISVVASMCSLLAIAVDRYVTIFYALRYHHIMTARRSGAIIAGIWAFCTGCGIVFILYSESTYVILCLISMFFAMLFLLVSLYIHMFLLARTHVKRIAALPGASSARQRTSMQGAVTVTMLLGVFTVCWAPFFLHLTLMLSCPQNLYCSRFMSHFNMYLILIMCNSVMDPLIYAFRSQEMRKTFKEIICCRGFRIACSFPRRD
Protocol: as §3, §4

mMC1 [11] = molecular target: T3, mMC1; experiment: cAMP accumulation assay, transfected HEK293A; set-up: dose or concentration left out as unconfirmed; details: HEK293-A, 0.25 h, read-out: Top
Protocol: as §3
(§5) Twenty-four hours after transfection, cells were serum-starved for 3 hours to reduce and stabilize basal levels of cAMP. Melanocortin agonists were tested using 1/5 serial dilutions to generate concentration response curves starting at 10 or 0.4 µM. Vehicle was used as negative control, and forskolin (3 µM, Tocris Bioscience) as positive control. Compound solutions were prepared in serum-free DMEM containing 10 mM 3-isobutyl-1-methylxanthine (IBMX; Sigma), to inhibit phosphodiesterase activity. […] Optical Density (OD) measurements were converted to cAMP concentration using a standard curve and results were normalized subtracting background signal and calculated as % of forskolin.

mMC5 [12] = molecular target: T4, mMC5; experiment: cAMP accumulation assay, transfected HEK293A; set-up: dose or concentration left out as unconfirmed; details: HEK293-A, 0.25 h, read-out: Top
Protocol: as §3, §5

hMC1 [13] = molecular target: T5, hMC1; experiment: cAMP accumulation assay, transfected HEK293A; set-up: dose or concentration left out as unconfirmed; details: HMC1, 0.25 h, read-out: Top
Protocol: as §3, §5

hMC3 [14] = molecular target: T6, hMC3; experiment: cAMP accumulation assay, transfected HEK293A; set-up: dose or concentration left out as unconfirmed; details: HMC3, 0.25 h, read-out: Top
Protocol: as §3, §5

hMC5 [15] = molecular target: T7, hMC5; experiment: cAMP accumulation assay, transfected HEK293A; set-up: dose or concentration left out as unconfirmed; details: HEK293-A, 0.25 h, read-out: Top
Protocol: as §3, §5

T1 sequence (P56450 whole entry): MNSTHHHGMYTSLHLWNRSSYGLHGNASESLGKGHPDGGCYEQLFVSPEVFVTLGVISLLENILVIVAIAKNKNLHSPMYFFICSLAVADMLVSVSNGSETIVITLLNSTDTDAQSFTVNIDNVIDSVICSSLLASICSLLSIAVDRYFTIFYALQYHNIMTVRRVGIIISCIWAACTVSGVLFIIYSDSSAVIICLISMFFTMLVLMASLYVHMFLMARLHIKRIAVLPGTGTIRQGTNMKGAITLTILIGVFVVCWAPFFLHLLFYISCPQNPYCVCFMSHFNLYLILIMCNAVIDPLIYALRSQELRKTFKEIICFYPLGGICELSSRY

Work on `CCCC[C@H](NC(C)=O)C(=O)N[C@H]1CCC(=O)NC[C@@H](C(=O)N[C@@H](Cc2c[nH]c3ccccc23)C(N)=O)NC(=O)[C@H](CCCNC(=N)N)NC(=O)[C@@H](Cc2ccccc2)NC(=O)[C@H](Cc2c[nH]cn2)NC1=O` [PL8177, Ac-Nle^1-cyclo(Glu^2-L-His^3-D-Phe^4-Arg^5-Dap^6)-Trp^7-NH2] yielded an Emax at 2 µM (mMC4 [1]) of 75.1%, an Emax at 2 µM (hMC4 [2]) of 26.5% and an Emax (mMC4 [3]) of 80.7%. For the same compound, the Emax (hMC4 [4]) was 56.1%, the “persisting plasma levels after administration” value [5] was 48 h and the Emax (mMC1 [6]) was 99.7%. The Emax (mMC5 [7]) was 18.6%, the Emax (hMC1 [8]) was 136% and the Emax (hMC3 [9]) was 70.1%. It also gave an Emax (hMC5 [10]) of 62.7%, an Emax (mMC1 [11]) of 103% and an Emax (mMC5 [12]) of 14.8%. For the same compound, the Emax (hMC1 [13]) was 112%, the Emax (hMC3 [14]) was 10.9% and the Emax (hMC5 [15]) was 38.2%.
